Activity calls are given as the source filed them. No rule for the calls is given here.
Test system: CCRIS mutagenicity, Ames/micronucleus/aberration tests
Assay: CCRIS mutagenicity studies
[1] = Test System: AMES SALMONELLA TYPHIMURIUM, Strain/Indicator: TA97, Metabolic Activation: NONE, Method: PREINCUBATION
[2] = Test System: AMES SALMONELLA TYPHIMURIUM, Strain/Indicator: TA102, Metabolic Activation: NONE, Method: PREINCUBATION
[3] = Test System: AMES SALMONELLA TYPHIMURIUM, Strain/Indicator: TA98, Metabolic Activation: NONE, Method: PREINCUBATION
[4] = Test System: AMES SALMONELLA TYPHIMURIUM, Strain/Indicator: TA100, Metabolic Activation: NONE, Method: PREINCUBATION
[5] = Test System: AMES SALMONELLA TYPHIMURIUM, Strain/Indicator: TA1535, Metabolic Activation: NONE, Method: PREINCUBATION

SMILES: c1ccc2c(c1)ccc1nc3ccc4c(c3cc12)CCCC4
- mutagenic call (Test System: AMES SALMONELLA TYPHIMURIUM, Strain/Indicator: TA98, Metabolic Activation: GUINEA PIG, LIVER, S-9, 3-METHYLCHOLANTHRENE, Method: STANDARD PLATE): inactive; negative
- mutagenic call (Test System: AMES SALMONELLA TYPHIMURIUM, Strain/Indicator: TA100, Metabolic Activation: GUINEA PIG, LIVER, S-9, 3-METHYLCHOLANTHRENE, Method: STANDARD PLATE): active; positive

SMILES: C=Cc1c(C)c2[n-]c1=CC1=NC(=CC3=C(C)C(=C([O-])[O-])C(=N3)C(CC(=O)[O-])=C3N=C(C=2)C(C)C3CCC(=O)[O-])C(CC)=C1C.[Cu+2].[Na+].[Na+].[Na+] (configuration not stated)
- mutagenic call [1]: inactive; negative
- mutagenic call (Test System: AMES SALMONELLA TYPHIMURIUM, Strain/Indicator: TA97, Metabolic Activation: S-9, Method: PREINCUBATION): inactive; negative
- mutagenic call [2]: inactive; negative
- mutagenic call (Test System: AMES SALMONELLA TYPHIMURIUM, Strain/Indicator: TA102, Metabolic Activation: S-9, Method: PREINCUBATION): inactive; negative
- mutagenic call (Test System: CHINESE HAMSTER OVARY, Strain/Indicator: CHO-K1 (HGPRT)/6-THIOGUANINE): inactive; negative

SMILES: COc1ccc(C(=O)/C(Br)=C\C(=O)O)cc1
- mutagenic call (End Point: IN VITRO CHROMOSOMAL ABERRATIONS, Test System: CHO CELLS, Metabolic Activation: NONE): active; positive
- mutagenic call (End Point: IN VITRO CHROMOSOMAL ABERRATIONS, Test System: CHO CELLS, Metabolic Activation: RAT, LIVER, S-9, AROCLOR 1254): active; positive
- mutagenic call (Test System: AMES SALMONELLA TYPHIMURIUM, Strain/Indicator: TA97, Metabolic Activation: HAMSTER, LIVER, S-9, AROCLOR 1254 (10%), Method: PREINCUBATION): active; positive
- mutagenic call [1]: active; positive
- mutagenic call (Test System: AMES SALMONELLA TYPHIMURIUM, Strain/Indicator: TA97, Metabolic Activation: RAT, LIVER, S-9, AROCLOR 1254 (10%), Method: PREINCUBATION): active; positive
- mutagenic call (Test System: AMES SALMONELLA TYPHIMURIUM, Strain/Indicator: TA98, Metabolic Activation: HAMSTER, LIVER, S-9, AROCLOR 1254 (10%), Method: PREINCUBATION): active; positive
- mutagenic call [3]: active; positive
- mutagenic call (Test System: AMES SALMONELLA TYPHIMURIUM, Strain/Indicator: TA98, Metabolic Activation: RAT, LIVER, S-9, AROCLOR 1254 (10%), Method: PREINCUBATION): active; positive
- mutagenic call (Test System: AMES SALMONELLA TYPHIMURIUM, Strain/Indicator: TA100, Metabolic Activation: HAMSTER, LIVER, S-9, AROCLOR 1254 (10%), Method: PREINCUBATION): active; positive
- mutagenic call [4]: active; positive
- mutagenic call (Test System: AMES SALMONELLA TYPHIMURIUM, Strain/Indicator: TA100, Metabolic Activation: RAT, LIVER, S-9, AROCLOR 1254 (10%), Method: PREINCUBATION): active; positive
- mutagenic call (Test System: AMES SALMONELLA TYPHIMURIUM, Strain/Indicator: TA1535, Metabolic Activation: HAMSTER, LIVER, S-9, AROCLOR 1254 (10%), Method: PREINCUBATION): active; positive
- mutagenic call [5]: inactive; negative
- mutagenic call (Test System: AMES SALMONELLA TYPHIMURIUM, Strain/Indicator: TA1535, Metabolic Activation: RAT, LIVER, S-9, AROCLOR 1254 (10%), Method: PREINCUBATION): active; positive
- mutagenic call (Test System: MOUSE LYMPHOMA, Strain/Indicator: L5178Y (TK+/TK-), Metabolic Activation: NONE, Method: SUSPENSION/PLATE): active; positive
- mutagenic call (Test System: UDS RODENT HEPATOCYTES, Strain/Indicator: THY INCORP (NON-S-PHASE), Metabolic Activation: 3-METHYLCHOLANTHRENE, Method: AUTORADIOGRAPHY): active; positive
- mutagenic call (Test System: UDS RODENT HEPATOCYTES, Strain/Indicator: THY INCORP (NON-S-PHASE), Metabolic Activation: AROCLOR, Method: AUTORADIOGRAPHY): active; positive
- mutagenic call (Test System: UDS RODENT HEPATOCYTES, Strain/Indicator: THY INCORP (NON-S-PHASE), Metabolic Activation: NONE, Method: AUTORADIOGRAPHY): inactive; negative

SMILES: O=[N+]([O-])c1ccccc1S(=O)(=O)O
- mutagenic call [3]: inactive; negative
- mutagenic call (Test System: AMES SALMONELLA TYPHIMURIUM, Strain/Indicator: TA98, Metabolic Activation: RAT, LIVER, S-9, KANECHLOR 500, Method: PREINCUBATION): inactive; negative
- mutagenic call [4]: inactive; negative
- mutagenic call (Test System: AMES SALMONELLA TYPHIMURIUM, Strain/Indicator: TA100, Metabolic Activation: RAT, LIVER, S-9, KANECHLOR 500, Method: PREINCUBATION): inactive; negative

SMILES: CCN=C=S
- mutagenic call [1]: inactive; negative
- mutagenic call (Test System: AMES SALMONELLA TYPHIMURIUM, Strain/Indicator: TA97, Metabolic Activation: RAT, LIVER, S-9, AROCLOR 1254, Method: PREINCUBATION): inactive; negative
- mutagenic call [2]: inactive; negative
- mutagenic call (Test System: AMES SALMONELLA TYPHIMURIUM, Strain/Indicator: TA102, Metabolic Activation: RAT, LIVER, S-9, AROCLOR 1254, Method: PREINCUBATION): inactive; negative

SMILES: CS(=O)(=O)c1ccc(O)c(N)c1
- mutagenic call (Test System: AMES SALMONELLA TYPHIMURIUM, Strain/Indicator: TA97, Metabolic Activation: HAMSTER, LIVER, S-9, AROCLOR 1254 (10 OR 30%), Method: PREINCUBATION): inactive; negative
- mutagenic call [1]: inactive; negative
- mutagenic call (Test System: AMES SALMONELLA TYPHIMURIUM, Strain/Indicator: TA97, Metabolic Activation: RAT, LIVER, S-9, AROCLOR 1254 (10 OR 30%), Method: PREINCUBATION): inactive; negative
- mutagenic call (Test System: AMES SALMONELLA TYPHIMURIUM, Strain/Indicator: TA98, Metabolic Activation: HAMSTER, LIVER, S-9, AROCLOR 1254 (10 OR 30%), Method: PREINCUBATION): inactive; negative
- mutagenic call [3]: inactive; negative
- mutagenic call (Test System: AMES SALMONELLA TYPHIMURIUM, Strain/Indicator: TA98, Metabolic Activation: RAT, LIVER, S-9, AROCLOR 1254 (10 OR 30%), Method: PREINCUBATION): inactive; negative
- mutagenic call (Test System: AMES SALMONELLA TYPHIMURIUM, Strain/Indicator: TA100, Metabolic Activation: HAMSTER, LIVER, S-9, AROCLOR 1254 (10 OR 30%), Method: PREINCUBATION): inactive; negative
- mutagenic call [4]: inactive; negative
- mutagenic call (Test System: AMES SALMONELLA TYPHIMURIUM, Strain/Indicator: TA100, Metabolic Activation: RAT, LIVER, S-9, AROCLOR 1254 (10 OR 30%), Method: PREINCUBATION): inactive; negative
- mutagenic call (Test System: AMES SALMONELLA TYPHIMURIUM, Strain/Indicator: TA1535, Metabolic Activation: HAMSTER, LIVER, S-9, AROCLOR 1254 (10 OR 30%), Method: PREINCUBATION): inactive; negative
- mutagenic call [5]: inactive; negative
- mutagenic call (Test System: AMES SALMONELLA TYPHIMURIUM, Strain/Indicator: TA1535, Metabolic Activation: RAT, LIVER, S-9, AROCLOR 1254 (10 OR 30%), Method: PREINCUBATION): inactive; negative
- mutagenic call (Test System: AMES SALMONELLA TYPHIMURIUM, Strain/Indicator: TA1537, Metabolic Activation: HAMSTER, LIVER, S-9, AROCLOR 1254 (10 OR 30%), Method: PREINCUBATION): inactive; negative
- mutagenic call (Test System: AMES SALMONELLA TYPHIMURIUM, Strain/Indicator: TA1537, Metabolic Activation: NONE, Method: PREINCUBATION): inactive; negative
- mutagenic call (Test System: AMES SALMONELLA TYPHIMURIUM, Strain/Indicator: TA1537, Metabolic Activation: RAT, LIVER, S-9, AROCLOR 1254 (10 OR 30%), Method: PREINCUBATION): inactive; negative

SMILES: Cc1c([N+](=O)[O-])cc(C)c2c1c1ccccc1n2C
- mutagenic call (Test System: AMES SALMONELLA TYPHIMURIUM, Strain/Indicator: TA98, Metabolic Activation: NONE, Method: STANDARD PLATE): active; positive
- mutagenic call (Test System: AMES SALMONELLA TYPHIMURIUM, Strain/Indicator: TA98, Metabolic Activation: RAT LIVER S-9, AROCLOR 1254, Method: STANDARD PLATE): active; positive
- mutagenic call (Test System: AMES SALMONELLA TYPHIMURIUM, Strain/Indicator: TA100, Metabolic Activation: NONE, Method: STANDARD PLATE): active; positive
- mutagenic call (Test System: AMES SALMONELLA TYPHIMURIUM, Strain/Indicator: TA100, Metabolic Activation: RAT LIVER S-9, AROCLOR 1254, Method: STANDARD PLATE): active; positive

SMILES: Nc1cccc2nc3ccccc3nc12
- mutagenic call [3]: active; positive
- mutagenic call (Test System: AMES SALMONELLA TYPHIMURIUM, Strain/Indicator: TA98, Metabolic Activation: RAT, LIVER, S-9, PCB, Method: PREINCUBATION): inactive; negative

SMILES: O.O.O.O.O.O.O.[Cl-].[Cl-].[Cl-].[Fe+3]
- mutagenic call (Test System: AMES SALMONELLA TYPHIMURIUM, Strain/Indicator: TA102, Metabolic Activation: NONE, Method: STANDARD PLATE): inactive; negative
- mutagenic call (Test System: Mouse lymphoma, Strain/Indicator: L5178Y (tk+/tk-), Metabolic Activation: None, Method: Suspension/plate): inactive; negative
- mutagenic call (Test System: Mouse lymphoma, Strain/Indicator: L5178Y (tk+/tk-), Metabolic Activation: Rat, Liver, S-9, Aroclor 1254, Method: Suspension/plate): inactive; inconclusive (previous evaluation: negative)
